The values below come from ChEMBL document CHEMBL3046358, “Multiple Pro-197 substitutions in the acetolactate synthase of rigid ryegrass (Lolium rigidum) and their impact on chlorsulfuron activity and plant growth” (Crop Prot, 2012).

Test [1] relates to Lolium rigidum. Briefly: Herbicidal activity against Lolium rigidum accession A10 assessed as fresh weight reduction applied at 1 times pre-emergence recommended rate relative to untreated control. It counts as functional. Details: scale not given: the % may be the effect or the level left.
In test [2] the test system is Lolium rigidum. Nature of the test: Herbicidal activity against Lolium rigidum accession A01 assessed as fresh weight reduction applied at 1 times pre-emergence recommended rate applied in pots where terbufos had been incorporated into the soil relative to untreated control. It counts as functional. More on the design: scale not given: the % may be the effect or the level left.

In test [3] the test system is Lolium rigidum. Nature of the test: Herbicidal activity against Lolium rigidum accession A03 assessed as fresh weight reduction applied at 4 times pre-emergence recommended rate relative to untreated control. It counts as functional. Details: scale not given: the % may be the effect or the level left.
In test [4] the test system is Lolium rigidum. Nature of the test: Herbicidal activity against Lolium rigidum accession A08 assessed as fresh weight reduction applied at 4 times pre-emergence recommended rate relative to untreated control. It is filed as functional. Details: scale not given: the % may be the effect or the level left.
Test [5] concerns Lolium rigidum. Briefly: Herbicidal activity against Lolium rigidum accession A12 assessed as emergence rate applied at 4 times pre-emergence recommended rate relative to untreated control. It is filed as functional.
In test [6] the test system is Lolium rigidum. Briefly: Herbicidal activity against Lolium rigidum accession A13 assessed as fresh weight reduction applied at 1 times pre-emergence recommended rate relative to untreated control. It counts as functional. Details: scale not given: the % may be the effect or the level left.
Test [7] deals with Lolium rigidum. Nature of the test: Herbicidal activity against Lolium rigidum accession A11 assessed as emergence rate applied at 4 times pre-emergence recommended rate relative to untreated control. It counts as functional.
Test [8] relates to Lolium rigidum. Briefly: Herbicidal activity against Lolium rigidum accession A15 assessed as fresh weight reduction applied at 4 times pre-emergence recommended rate relative to untreated control. It is filed as functional. More on the design: scale not given: the % may be the effect or the level left.
Test [9] relates to Lolium rigidum. Briefly: Herbicidal activity against Lolium rigidum accession A06 assessed as fresh weight reduction applied at 1 times pre-emergence recommended rate applied in pots where terbufos had been incorporated into the soil relative to untreated control. Details: scale not given: the % may be the effect or the level left. It is filed as functional.
Test [10] concerns the target T1, Acetolactate synthase (Lolium rigidum) (UniProt A7XBP7).
T1 sequence (whole entry): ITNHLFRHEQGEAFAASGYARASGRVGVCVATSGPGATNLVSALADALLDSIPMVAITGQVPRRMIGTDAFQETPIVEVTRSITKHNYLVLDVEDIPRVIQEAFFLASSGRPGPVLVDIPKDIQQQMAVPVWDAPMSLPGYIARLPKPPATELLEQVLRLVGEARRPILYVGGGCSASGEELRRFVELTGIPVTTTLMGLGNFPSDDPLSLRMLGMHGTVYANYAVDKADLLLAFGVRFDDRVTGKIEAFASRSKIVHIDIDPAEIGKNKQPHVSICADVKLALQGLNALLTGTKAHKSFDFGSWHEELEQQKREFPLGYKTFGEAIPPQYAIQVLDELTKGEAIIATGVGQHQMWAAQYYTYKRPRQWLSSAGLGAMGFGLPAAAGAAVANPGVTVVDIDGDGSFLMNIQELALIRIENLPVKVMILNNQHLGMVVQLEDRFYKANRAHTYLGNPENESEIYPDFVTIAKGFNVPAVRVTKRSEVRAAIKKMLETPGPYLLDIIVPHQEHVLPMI
Nature of the test: Resistance index, ratio of I50 for acetolactate synthase Pro-197/Pro-197 mutant in Lolium rigidum accession A10 leaves extracts to I50 for acetolactate synthase in Lolium rigidum accession A01 leaves extracts.

The test system of test [11] is Lolium rigidum. Nature of the test: Herbicidal activity against Lolium rigidum accession A05 assessed as fresh weight reduction applied at 4 times pre-emergence recommended rate relative to untreated control. More on the design: scale not given: the % may be the effect or the level left. It counts as functional.
Test [12] relates to Lolium rigidum. Briefly: Herbicidal activity against Lolium rigidum accession A11 assessed as fresh weight reduction applied at 4 times pre-emergence recommended rate relative to untreated control. More on the design: scale not given: the % may be the effect or the level left. It is filed as functional.
Test [13] relates to Lolium rigidum. Nature of the test: Herbicidal activity against Lolium rigidum accession A01 assessed as emergence rate applied at 4 times pre-emergence recommended rate relative to untreated control. It is filed as functional.
Test [14] relates to Lolium rigidum. Nature of the test: Herbicidal activity against Lolium rigidum accession A02 assessed as fresh weight reduction applied at 1 times pre-emergence recommended rate relative to untreated control. It counts as functional. More on the design: scale not given: the % may be the effect or the level left.
Test [15] relates to Lolium rigidum. Nature of the test: Herbicidal activity against Lolium rigidum accession A11 assessed as fresh weight reduction applied at 1 times pre-emergence recommended rate applied in pots where terbufos had been incorporated into the soil relative to untreated control. It is filed as functional. Details: scale not given: the % may be the effect or the level left.
Test [16] concerns Lolium rigidum. Nature of the test: Herbicidal activity against Lolium rigidum accession A10 assessed as fresh weight reduction applied at 4 times pre-emergence recommended rate relative to untreated control. It is filed as functional. Details: scale not given: the % may be the effect or the level left.

With `COc1nc(C)nc(NC(=O)NS(=O)(=O)c2ccccc2Cl)n1` [CHLORSULFURON], the Activity with Lolium rigidum [1] was found to be 76%; with Lolium rigidum [2], 99%; in the test with Lolium rigidum [3], 91%; in the test with Lolium rigidum [4], 46%; in the test with Lolium rigidum [5] it was 1%; in the test on Lolium rigidum [6] it was 98%. In addition, the Activity in the test on Lolium rigidum [7] is on record as 1%; with Lolium rigidum [8], 98%; in the test on Lolium rigidum [9], 0%; in the test on Lolium rigidum [11], 2%; with Lolium rigidum [12], 90%; in the test on Lolium rigidum [13], 1%. Also, the figures for the Activity in the test on Lolium rigidum [14], in the test with Lolium rigidum [15] and in the test with Lolium rigidum [16] were 96%, 97% and 100%, respectively. The Ratio in test [10] stood at 1.
